This assay deals with QBC939/ADM. The assay is described as follows: CCK-8 assay of cytotoxicity of targeted drugs with or without ginsenoside composition in drug-resistant cells. The conditions noted are these: 24 h. The class given is cell-based, Human. On the procedure: 1. Materials and Methods Human cholangiocarcinoma cell line QBC939, purchased from Shanghai Honshun Biological Technology Co., Ltd.
The human cholangiocarcinoma cell line QBC939 was thawed and inoculated into T25 cell culture flasks filled with cell culture medium, and QBC939/ADM was constructed by continuously increasing the contact concentration of ADM.
The cells were divided into a blank zeroed control group, a normal control group and 9 experimental groups, each containing 100 μL of 80 μg/mL ginsenoside composition for cell culturing.
The control group (chemotherapeutic drug group): 100 μL of culture medium containing chemotherapeutic drugs was added to each well. The chemotherapeutic drugs included the targeted drugs afatinib (400 μg/mL), ceritinib (1000 μg/mL) and erlotinib (200 μg/mL). Six replicate wells were set up for each drug.
The experimental group (chemotherapeutic drugs+traditional Chinese medicine): 100 μL of culture medium containing chemotherapeutic drugs+ginsenoside composition was added to each well, namely afatinib (400 μg/mL)+ginsenoside composition (80 μg/mL), ceritinib (1000 μg/mL)+ginsenoside composition (80 μg/mL), and erlotinib (200 μg/mL)+ginsenoside composition (80 μg/mL). Six replicate wells were set up for each drug.
The cytotoxic effects of the chemotherapeutic drugs were detected 24 h later.
Background: Formazan colour is commonly taken as a measure of viable cells.

`CN(C)C/C=C/C(=O)Nc1cc2c(Nc3ccc(F)c(Cl)c3)ncnc2cc1O[C@H]1CCOC1` [afatinib]: the “Absorbance value (OD, CCK-8), Afatinib” value (control group: afatinib 400 μg/mL alone) was found to be 1.179 ± 0.147.
For the compound `Cc1cc(Nc2ncc(Cl)c(Nc3ccccc3S(=O)(=O)C(C)C)n2)c(OC(C)C)cc1C1CCNCC1` [ceritinib], for the setting “control group: ceritinib 1000 μg/mL alone”, the “Absorbance value (OD, CCK-8), Ceritinib” value was determined as 1.304 ± 0.096.
`C#Cc1cccc(Nc2ncnc3cc(OCCOC)c(OCCOC)cc23)c1` [erlotinib]: the “Absorbance value (OD, CCK-8), Erlotinib” value (control group: erlotinib 200 μg/mL alone) is on record as 1.294 ± 0.131.

For the origin of these results see US20230321125A1, “COMPOSITIONS OF GINSENOSIDE RG3 AND GINSENOSIDE RG5 AND THEIR PHARMACEUTICAL USES INCLUDING ANTI-TUMOR EFFECTS” (DALIAN FUSHENG NATURAL MEDICINE DEVELOPMENT CO., LTD., priority 2020, published 2023).
